Bounds are passed on as bounds.

T1 sequence (Q15858 whole entry): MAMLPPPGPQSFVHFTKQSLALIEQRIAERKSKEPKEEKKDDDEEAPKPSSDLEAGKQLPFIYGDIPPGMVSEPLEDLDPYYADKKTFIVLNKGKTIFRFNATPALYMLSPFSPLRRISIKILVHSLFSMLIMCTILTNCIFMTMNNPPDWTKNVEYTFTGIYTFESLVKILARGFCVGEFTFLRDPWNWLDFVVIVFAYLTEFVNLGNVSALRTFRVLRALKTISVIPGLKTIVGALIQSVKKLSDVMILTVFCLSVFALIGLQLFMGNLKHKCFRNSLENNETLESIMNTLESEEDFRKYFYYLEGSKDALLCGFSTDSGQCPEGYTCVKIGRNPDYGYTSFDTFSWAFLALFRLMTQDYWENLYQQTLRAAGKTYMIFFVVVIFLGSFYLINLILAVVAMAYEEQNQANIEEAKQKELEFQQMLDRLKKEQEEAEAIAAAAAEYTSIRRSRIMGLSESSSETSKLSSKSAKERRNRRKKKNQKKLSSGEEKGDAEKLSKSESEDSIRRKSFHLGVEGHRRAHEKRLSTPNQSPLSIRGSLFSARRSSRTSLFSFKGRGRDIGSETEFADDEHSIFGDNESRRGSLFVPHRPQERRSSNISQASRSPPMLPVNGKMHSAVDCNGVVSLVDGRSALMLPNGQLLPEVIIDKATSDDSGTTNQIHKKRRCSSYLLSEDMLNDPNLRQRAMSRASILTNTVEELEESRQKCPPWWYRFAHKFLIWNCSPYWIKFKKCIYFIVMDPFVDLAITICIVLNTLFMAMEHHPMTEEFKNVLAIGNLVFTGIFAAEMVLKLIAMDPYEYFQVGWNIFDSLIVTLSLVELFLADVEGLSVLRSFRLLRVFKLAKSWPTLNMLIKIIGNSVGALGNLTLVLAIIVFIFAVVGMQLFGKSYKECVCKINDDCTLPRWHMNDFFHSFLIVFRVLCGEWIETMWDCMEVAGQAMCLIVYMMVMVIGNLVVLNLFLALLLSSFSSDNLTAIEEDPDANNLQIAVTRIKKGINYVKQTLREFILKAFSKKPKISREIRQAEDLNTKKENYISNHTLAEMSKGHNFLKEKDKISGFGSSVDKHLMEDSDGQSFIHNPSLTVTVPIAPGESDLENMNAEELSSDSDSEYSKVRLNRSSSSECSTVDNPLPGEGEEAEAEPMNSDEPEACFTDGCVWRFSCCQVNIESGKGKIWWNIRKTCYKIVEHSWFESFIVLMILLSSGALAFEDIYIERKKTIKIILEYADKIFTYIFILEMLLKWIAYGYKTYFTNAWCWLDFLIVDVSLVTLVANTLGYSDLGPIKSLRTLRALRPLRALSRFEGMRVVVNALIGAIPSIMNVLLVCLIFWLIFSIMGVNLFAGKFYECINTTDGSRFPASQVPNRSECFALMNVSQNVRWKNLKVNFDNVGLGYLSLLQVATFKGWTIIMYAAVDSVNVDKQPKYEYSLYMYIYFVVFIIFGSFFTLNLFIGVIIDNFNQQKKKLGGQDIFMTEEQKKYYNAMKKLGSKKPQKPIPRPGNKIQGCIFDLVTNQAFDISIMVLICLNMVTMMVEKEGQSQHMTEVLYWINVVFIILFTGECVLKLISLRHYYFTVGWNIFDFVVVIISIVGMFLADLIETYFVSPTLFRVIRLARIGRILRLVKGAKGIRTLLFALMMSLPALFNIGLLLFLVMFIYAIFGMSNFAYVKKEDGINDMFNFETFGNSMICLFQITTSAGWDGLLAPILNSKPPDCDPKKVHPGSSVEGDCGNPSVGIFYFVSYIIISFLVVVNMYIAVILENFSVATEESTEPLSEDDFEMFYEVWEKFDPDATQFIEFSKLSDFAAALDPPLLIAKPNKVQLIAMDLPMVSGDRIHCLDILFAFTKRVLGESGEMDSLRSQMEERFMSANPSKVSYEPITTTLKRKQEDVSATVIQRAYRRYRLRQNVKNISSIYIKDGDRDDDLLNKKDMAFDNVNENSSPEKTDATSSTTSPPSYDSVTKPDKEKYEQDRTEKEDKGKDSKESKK

This assay addresses T1, Nav1.7 (or SCN9A) channel; HEK cells stably transfected with hSCN9A (Homo sapiens, UniProt Q15858).
T1 construct: expressed in transfected cells
The assay is described as follows: Nav1.7 block, PatchXpress 7000 automated whole-cell voltage clamp, estimated IC50 (EIC50). The format is cell-based. The following applies: estimated IC50; hSCN9A HEK cells, PatchXpress platform; Examples 283-814.
Take `N#Cc1cc(S(=O)(=O)Nc2ccc(F)cn2)ccc1Oc1ccc(-c2cocn2)cc1` [Example 581, 3-cyano-N-(5-fluoropyridin-2-yl)-4-[4-(1,3-oxazol-4-yl)phenoxy]benzenesulfonamide]: the half-maximal inhibitory concentration (IC50) is over 3 µM.
Next, `N#Cc1cc(S(=O)(=O)Nc2ncc(I)s2)ccc1Oc1ccc(Cl)cc1-c1cn[nH]c1` [Example 582, 4-[4-Chloro-2-(1H-pyrazol-4-yl)phenoxy]-3-cyano-N-(5-iodo-1,3-thiazol-2-yl)benzenesulfonamide]: 0.034 µM; `N#Cc1cc(S(=O)(=O)Nc2ncc(Cl)s2)ccc1Oc1ccc(Cl)cc1-c1cn[nH]c1N` [Example 583, 4-[2-(5-Amino-1H-pyrazol-4-yl)-4-chlorophenoxy]-N-(5-chloro-1,3-thiazol-2-yl)-3-cyanobenzenesulfonamide]: 0.013 µM; `N#Cc1cc(S(=O)(=O)Nc2ncc(Cl)s2)ccc1Oc1ccc(F)cc1-c1ccnc(N)c1` [Example 584, 4-[2-(2-Aminopyridin-4-yl)-4-fluorophenoxy]-N-(5-chloro-1,3-thiazol-2-yl)-3-cyanobenzenesulfonamide]: 0.097 µM.
The result for `N#Cc1cc(S(=O)(=O)Nc2ncc(Cl)s2)ccc1Oc1ccc(Cl)cc1-c1ccnc(CO)c1` [Example 586, 4-{4-Chloro-2-[2-(hydroxymethyl)pyridin-4-yl]phenoxy}-N-(5-chloro-1,3-thiazol-2-yl)-3-cyanobenzenesulfonamide] reads 0.14 µM; that for `N#Cc1cc(S(=O)(=O)Nc2ncc(Cl)s2)ccc1Oc1ccc(F)cc1-c1ccc(N)nc1` [Example 587, 4-[2-(6-Aminopyridin-3-yl)-4-fluorophenoxy]-N-(5-chloro-1,3-thiazol-2-yl)-3-cyanobenzenesulfonamide], 0.2 µM; that for `N#Cc1cc(S(=O)(=O)Nc2ncc(Cl)s2)ccc1Oc1ccc(Cl)cc1C1COC1` [Example 588, 4-(4-Chloro-2-oxetan-3-ylphenoxy)-N-(5-chloro-1,3-thiazol-2-yl)-3-cyanobenzenesulfonamide], 0.12 µM.
The result for `N#Cc1cc(S(=O)(=O)Nc2ncc(Cl)s2)ccc1Oc1ccc(F)cc1-c1ccn[nH]1` [Example 589, N-(5-Chloro-1,3-thiazol-2-yl)-3-cyano-4-[4-fluoro-2-(1H-pyrazol-5-yl)phenoxy]benzenesulfonamide] reads 0.51 µM; that for `N#Cc1cc(S(=O)(=O)Nc2ncc(Cl)s2)ccc1Oc1ccc(C(F)(F)F)cc1-c1cn[nH]c1` [Example 590, N-(5-Chloro-1,3-thiazol-2-yl)-3-cyano-4-[2-(1H-pyrazol-4-yl)-4-(trifluoromethyl)phenoxy]benzenesulfonamide], 0.053 µM.
Take `N#Cc1cc(S(=O)(=O)Nc2ncc(Cl)s2)ccc1Oc1ccc(OC(F)(F)F)cc1-c1cn[nH]c1` [Example 591, N-(5-Chloro-1,3-thiazol-2-yl)-3-cyano-4-[2-(1H-pyrazol-4-yl)-4-(trifluoromethoxy)phenoxy]benzenesulfonamide]: the IC50 is 0.073 µM.
The result for `N#Cc1cc(S(=O)(=O)Nc2ncc(Cl)s2)ccc1Oc1ccc(Cl)cc1C1CCNCC1` [Example 593, 4-(4-Chloro-2-piperidin-4-ylphenoxy)-N-(5-chloro-1,3-thiazol-2-yl)-3-cyanobenzenesulfonamide] reads 0.035 µM.
The result for `N#Cc1cc(S(=O)(=O)Nc2ncc(Cl)s2)ccc1Oc1ccc(Cl)cc1C1CNC1` [Example 594, 4-(2-Azetidin-3-yl-4-chlorophenoxy)-N-(5-chloro-1,3-thiazol-2-yl)-3-cyanobenzenesulfonamide] reads 0.16 µM; that for `N#Cc1cc(S(=O)(=O)Nc2ncc(Cl)s2)ccc1Oc1ccc(Cl)cc1-c1ccnn1C(F)F` [Example 595, 4-{4-Chloro-2-[1-(difluoromethyl)-1H-pyrazol-5-yl]phenoxy}-N-(5-chloro-1,3-thiazol-2-yl)-3-cyanobenzenesulfonamide], 0.08 µM; that for `Cn1nccc1-c1cc(F)ccc1Oc1ccc(S(=O)(=O)Nc2ncc(Cl)s2)cc1C#N` [Example 596, N-(5-Chloro-1,3-thiazol-2-yl)-3-cyano-4-[4-fluoro-2-(1-methyl-1H-pyrazol-5-yl)phenoxy]benzenesulfonamide], 0.079 µM.
For `Cn1nccc1-c1cc(Cl)ccc1Oc1ccc(S(=O)(=O)Nc2ncc(Cl)s2)cc1C#N` [Example 597, 4-[4-Chloro-2-(1-methyl-1H-pyrazol-5-yl)phenoxy]-N-(5-chloro-1,3-thiazol-2-yl)-3-cyanobenzenesulfonamide], the 50% inhibitory concentration (IC50) is 0.02 µM.
`N#Cc1cc(S(=O)(=O)Nc2cscn2)ccc1Oc1ccc(C(F)(F)F)cc1-c1cn[nH]c1` [Example 598, 3-cyano-4-[2-(1H-pyrazol-4-yl)-4-(trifluoromethyl)phenoxy]-N-1,3-thiazol-4-ylbenzenesulfonamide]: the IC50 is 0.23 µM.
Take `N#Cc1cc(S(=O)(=O)Nc2cscn2)ccc1Oc1ccc(OC(F)(F)F)cc1-c1cn[nH]c1` [Example 599, 3-cyano-4-[2-(1H-pyrazol-4-yl)-4-(trifluoromethoxy)phenoxy]-N-1,3-thiazol-4-ylbenzenesulfonamide]: the IC50 is 0.3 µM.
Next, `Cc1scnc1NS(=O)(=O)c1ccc(Oc2ccccc2-c2ccccc2)c(C#N)c1` [Example 600, 4-(biphenyl-2-yloxy)-3-cyano-N-(5-methyl-1,3-thiazol-4-yl)benzenesulfonamide]: 15 µM.
In the case of `Cn1nccc1-c1cc(C(F)(F)F)ncc1Oc1ccc(S(=O)(=O)Nc2cscn2)cc1C#N` [Example 601, 3-cyano-4-{[4-(1-methyl-1H-pyrazol-5-yl)-6-(trifluoromethyl)pyridin-3-yl]oxy}-N-1,3-thiazol-4-ylbenzenesulfonamide], the IC50 was 0.94 µM.
Next, `Cn1nccc1-c1cc(Cl)ccc1Oc1ccc(S(=O)(=O)Nc2ncsc2F)cc1C#N` [Example 602, 4-[4-chloro-2-(1-methyl-1H-pyrazol-5-yl)phenoxy]-3-cyano-N-(5-fluoro-1,3-thiazol-4-yl)benzenesulfonamide]: 1.5 µM; `O=S(=O)(Nc1cscn1)c1cc(F)c(Oc2ccc(Cl)cc2C2CNC2)cc1F` [Example 604, 4-(2-azetidin-3-yl-4-chlorophenoxy)-2,5-difluoro-N-1,3-thiazol-4-ylbenzenesulfonamide]: 0.82 µM; `O=S(=O)(Nc1cscn1)c1cc(F)c(Oc2ccc(Cl)cc2-c2cn[nH]c2)cc1F` [Example 605, 4-[4-chloro-2-(1H-pyrazol-4-yl)phenoxy]-2,5-difluoro-N-1,3-thiazol-4-ylbenzenesulfonamide]: 0.1 µM.
Next, `Cn1nccc1-c1cc(Cl)ccc1Oc1cc(F)c(S(=O)(=O)Nc2cscn2)cc1F` [Example 606, 4-[4-chloro-2-(1-methyl-1H-pyrazol-5-yl)phenoxy]-2,5-difluoro-N-1,3-thiazol-4-ylbenzenesulfonamide]: 0.13 µM.
Take `Cn1cc(-c2cc(OC(F)(F)F)ccc2Oc2cc(F)c(S(=O)(=O)Nc3cscn3)cc2F)cn1` [Example 607, 2,5-difluoro-4-[2-(1-methyl-1H-pyrazol-4-yl)-4-(trifluoromethoxy)phenoxy]-N-1,3-thiazol-4-ylbenzenesulfonamide]: the half-maximal inhibitory concentration (IC50) is 2.8 µM.
For the compound `Cn1nccc1-c1cc(Cl)ccc1Oc1ccc(S(=O)(=O)Nc2ccc(F)cn2)cc1C#N` [Example 608, 4-[4-chloro-2-(1-methyl-1H-pyrazol-5-yl)phenoxy]-3-cyano-N-(5-fluoropyridin-2-yl)benzenesulfonamide], the IC50 is 0.4 µM.
Regarding `Cn1nc(C(F)(F)F)cc1-c1ccc(Oc2ccc(S(=O)(=O)Nc3ncc(F)s3)cc2F)cc1` [Example 609, 3-fluoro-N-(5-fluoro-1,3-thiazol-2-yl)-4-{4-[1-methyl-3-(trifluoromethyl)-1H-pyrazol-5-yl]phenoxy}benzenesulfonamide], the IC50 is 1.7 µM.
Next, `Cc1cc(C)n(-c2ccc(Oc3ccc(S(=O)(=O)Nc4nccs4)c(F)c3)cc2)n1` [Example 610, 4-[4-(3,5-Dimethyl-1H-pyrazol-1-yl)phenoxy]-2-fluoro-N-1,3-thiazol-2-ylbenzenesulfonamide]: over 1 µM; `O=S(=O)(Nc1cscn1)c1ccc(Oc2ccc(Cl)cc2-c2cn[nH]c2)c(F)c1` [Example 611, 4-[4-chloro-2-(1H-pyrazol-4-yl)phenoxy]-3-fluoro-N-1,3-thiazol-4-ylbenzenesulfonamide]: 0.52 µM; `O=S(=O)(Nc1cscn1)c1ccc(Oc2ccc(OC(F)(F)F)cc2-c2cn[nH]c2)c(F)c1` [Example 612, 3-fluoro-4-[2-(1H-pyrazol-4-yl)-4-(trifluoromethoxy)phenoxy]-N-1,3-thiazol-4-ylbenzenesulfonamide]: 0.54 µM.
The result for `Cn1nccc1-c1cc(F)ccc1Oc1cc(F)c(S(=O)(=O)Nc2ncc(Cl)s2)cc1F` [Example 613, N-(5-chloro-1,3-thiazol-2-yl)-2,5-difluoro-4-[4-fluoro-2-(1-methyl-1H-pyrazol-5-yl)phenoxy]benzenesulfonamide] reads 0.11 µM; that for `O=S(=O)(Nc1ncc(Cl)s1)c1cc(F)c(Oc2ccc(F)cc2-c2cn[nH]c2)cc1F` [Example 614, N-(5-chloro-1,3-thiazol-2-yl)-2,5-difluoro-4-[4-fluoro-2-(1H-pyrazol-4-yl)phenoxy]benzenesulfonamide], 0.18 µM.
Next, `Cn1nccc1-c1ccc(C#N)cc1Oc1cc(F)c(S(=O)(=O)Nc2ncc(Cl)s2)cc1F` [Example 615, N-(5-chloro-1,3-thiazol-2-yl)-4-[5-cyano-2-(1-methyl-1H-pyrazol-5-yl)phenoxy]-2,5-difluorobenzenesulfonamide]: 2 µM; `N#Cc1cncc(-c2cc(C(F)(F)F)ccc2Oc2cc(F)c(S(=O)(=O)Nc3ncns3)cc2Cl)c1` [Example 616, 5-chloro-4-[2-(5-cyanopyridin-3-yl)-4-(trifluoromethyl)phenoxy]-2-fluoro-N-1,2,4-thiadiazol-5-ylbenzenesulfonamide]: 0.28 µM; `Nc1cccc(-c2cc(F)ccc2Oc2cc(F)c(S(=O)(=O)Nc3ncns3)cc2Cl)n1` [Example 617, 4-[2-(6-aminopyridin-2-yl)-4-fluorophenoxy]-5-chloro-2-fluoro-N-1,2,4-thiadiazol-5-ylbenzenesulfonamide]: 0.03 µM.

The values are drawn from patent publication US8541588B2, “Sulfonamide derivatives” (Pfizer Limited, priority 2009, dated 2013).
